Source: publication PMC3639985, “Differential Ligand Binding Affinities of Human Estrogen Receptor-α Isoforms” (PLoS ONE, 2013)
Like-named read-outs stand apart in the source and are kept apart here. Values belong to the molecule of their own block, whether it stands above or below them.

Assays:
human ER66 = target: T1, human ER66 (Homo sapiens, UniProt P03372); assay: Competitive [3H]-17β-estradiol ligand binding assay, ER66
T1 sequence (P03372 1-595): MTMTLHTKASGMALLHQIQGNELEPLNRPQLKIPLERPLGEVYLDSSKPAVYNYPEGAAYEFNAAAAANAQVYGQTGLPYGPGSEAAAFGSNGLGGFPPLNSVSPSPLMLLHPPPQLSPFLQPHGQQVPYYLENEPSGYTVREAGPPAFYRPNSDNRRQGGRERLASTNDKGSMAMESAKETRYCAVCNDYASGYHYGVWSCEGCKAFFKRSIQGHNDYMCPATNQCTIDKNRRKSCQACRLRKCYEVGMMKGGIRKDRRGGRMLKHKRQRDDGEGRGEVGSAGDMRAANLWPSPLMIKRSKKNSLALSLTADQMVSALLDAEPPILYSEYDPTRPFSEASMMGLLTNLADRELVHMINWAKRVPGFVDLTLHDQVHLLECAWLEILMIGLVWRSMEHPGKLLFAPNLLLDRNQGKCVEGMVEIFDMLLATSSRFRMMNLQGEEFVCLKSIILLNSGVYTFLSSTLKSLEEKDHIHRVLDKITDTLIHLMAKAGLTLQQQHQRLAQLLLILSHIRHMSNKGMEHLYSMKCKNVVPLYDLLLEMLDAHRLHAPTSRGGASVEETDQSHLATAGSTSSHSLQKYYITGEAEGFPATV

ERα over ERβ = conditions: cited from earlier work
human ER46 = target: T2, human ER46 (Homo sapiens, UniProt P03372); assay: Competitive [3H]-17β-estradiol ligand binding assay, ER46
T2 sequence (P03372 1-422 isoform P03372-3): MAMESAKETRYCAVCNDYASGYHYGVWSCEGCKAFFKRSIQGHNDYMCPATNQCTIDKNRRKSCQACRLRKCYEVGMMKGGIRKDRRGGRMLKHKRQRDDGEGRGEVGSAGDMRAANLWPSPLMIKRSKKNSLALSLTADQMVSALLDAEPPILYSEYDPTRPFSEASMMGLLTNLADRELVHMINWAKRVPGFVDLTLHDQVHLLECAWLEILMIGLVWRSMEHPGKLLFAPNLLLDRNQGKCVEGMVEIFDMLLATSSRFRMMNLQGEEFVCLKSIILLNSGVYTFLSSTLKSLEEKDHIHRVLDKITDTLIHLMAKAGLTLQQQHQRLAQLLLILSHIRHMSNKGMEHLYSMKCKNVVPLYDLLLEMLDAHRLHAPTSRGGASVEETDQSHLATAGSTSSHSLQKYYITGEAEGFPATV

palmitoylated ER66 = assay: Native gel electrophoresis / Western blot of palmitoylated ER66 in eukaryotic cell-free expression system; format: biochemical, human; conditions: 2-bromopalmitate 100 µM
palmitoylated ER46 = assay: Native gel electrophoresis / Western blot of palmitoylated ER46 in eukaryotic cell-free expression system; format: biochemical, human; conditions: 2-bromopalmitate 100 µM
ER36 = target: ER36; parameters: method as in PMID 20197310; conditions: previous studies; cited from earlier work
[1] = ratio of IC50 values of 17β-estradiol and compound, 17β-estradiol set at 100

RBA ER66 (human ER66): 0.305
RBA ER46 (human ER46): 0.498
higher affinity for ER46 when compared to ICI 182,780 (human ER46): four-fold
Molecule: methyl-piperidino-pyrazole dihydrochloride [MPP]
selectivity for ERα over ERβ (ERα over ERβ): 200 fold

Molecule: CCCCCCCCCCCCCCC(Br)C(=O)O (stereo not drawn) [2-bromopalmitate, 2-bromohexadecanoic acid]
expression of palmitoylated ER66 (palmitoylated ER66): abolished
expression of palmitoylated ER46 (palmitoylated ER46): abolished

RBA ER66 (human ER66; [1]): 0.003
RBA ER46 (human ER46; [1]): 0.002
Molecule: O=c1c(-c2ccc(O)cc2)coc2cc(O)ccc12 [Daidzein, daidzein]

IC50 (human ER66): 1330 nM
RBA ER66 (human ER66; [1]): 0.003
IC50 (human ER46): 3.33 µM
RBA ER46 (human ER46): 0.001
Molecule: Oc1ccc(-c2c(-c3ccccc3)nn3c(C(F)(F)F)cc(C(F)(F)F)nc23)cc1 [PHTPP, 4-[2-phenyl-5,7-bis(trifluoromethyl)pyrazolo[1,5-a]pyrimidin-3-yl]phenol]

Molecule: C[C@]12CC[C@@H]3c4ccc(O)cc4CC[C@H]3[C@@H]1CC[C@@H]2O [17β-estradiol]
Kd (ER36): 2.2 nM

RBA ER66 (human ER66; [1]): 42052
RBA ER46 (human ER46; [1]): 23016
Molecule: CCCc1c(-c2ccc(O)cc2)nn(-c2ccc(O)cc2)c1-c1ccc(O)cc1 [PPT, propylpyrazole triol]
